Experimental data from patent US10654816B2, “Compounds and compositions for treating conditions associated with NLRP activity” (NOVARTIS INFLAMMASOME RESEARCH, INC., priority 2017, dated 2020).

system: IL-1β production in PMA-differentiated THP-1 cells; test: IL-1β production in PMA-differentiated THP-1 cells stimulated with gramicidin (hTHP-1 assay, HTRF readout; Procedures 1-3); assay type: cell-based, human; settings: Homo sapiens, THP-1, hTHP-1 assay containing 2% fetal bovine serum; average; class symbols; read-out: hTHP-1 IC50 (Average IC50 of compounds in hTHP-1 assay)
Outline: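 PMA-differentiated (20 ng/ml, 16-18 h) THP-1 cells in RPMI with 2% FBS, 50,000 cells/well, preincubated 1 h with compound (final 0.0017-100 μM, 0.37% DMSO), then stimulated with 5 μM gramicidin for 2 h. IL-1β in cell-free supernatant measured by HTRF (620/668 nm).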

| Structure (SMILES) | IC50 |
| --- | --- |
| CC(C)(O)c1ccc(S(N)(=O)=NC(=O)Nc2c3c(c(F)c4c2CCC4)CCC3)c(F)c1 (stereo not drawn) [Example 47, 2-fluoro-N′-(8-fluoro-1,2,3,5,6,7-hexahydro-s-indacen-4-ylcarbamoyl)-4-(2-hydroxypropan-2-yl)benzenesulfonimidamide] | 0.2 to 1 µM |
| CN(C)Cc1cccc(S(N)(=O)=NC(=O)Nc2c3c(cc4c2CCC4)CCC3)c1 (stereo not drawn) [Example 51, 3-((dimethylamino)methyl)-N′-(1,2,3,5,6,7-hexahydro-s-indacen-4-ylcarbamoyl)benzene-sulfonimidamide] | 1 to 5 µM |
| CC(C)c1cc(OC(F)F)cc(C2CC2)c1NC(=O)N=S(N)(=O)c1ccc(C(C)(C)O)cc1F (stereo not drawn) [Example 54] | 1 to 5 µM |
| CC(C)(O)c1ccc(F)c(S(N)(=O)=NC(=O)Nc2c3c(c(F)c4c2CCC4)CCC3)c1 (stereo not drawn) [Example 55, 2-fluoro-N′-((8-fluoro-1,2,3,5,6,7-hexahydro-s-indacen-4-yl)carbamoyl)-5-(2-hydroxypropan-2-yl)benzenesulfonimidamide] | 0.2 to 1 µM |
| CC(C)c1cc(F)cc(C(C)C)c1NC(=O)N=S(N)(=O)c1cccc(S(C)(=O)=O)c1 (stereo not drawn) [Example 63, N′-((4-fluoro-2,6-diisopropylphenyl)carbaoyl)-3-(methylsulfonyl)benzenesulfonim idamide] | 1 to 5 µM |
| CC(C)c1cc(C#N)cc(C(C)C)c1NC(=O)N=S(N)(=O)c1sc(C(C)(C)O)cc1F (stereo not drawn) [Example 65, N′-((4-cyano-2,6-diisopropylphenyl)carbaoyl)-3-fluoro-5-(2-hydroxypropan-2-yl)thiophene-2-sulfonimidamide] | 0.04 to 0.2 µM |
| CC(C)c1cc(C#N)cc(C(C)C)c1NC(=O)N=S(N)(=O)c1cc(C(C)(C)O)cc(C(C)(C)O)c1 (stereo not drawn) [Example 66, N′-((4-cyano-2,6-diisopropylphenyl)carbaoyl)-3,5-bis(2-hydroxypropan-2-yl)benzenesulfonimidamide] | 5 to 30 µM |
| CC(C)c1cc(C#N)cc(C(C)C)c1NC(=O)N=S(N)(=O)c1ccc(C(C)(C)O)c(CO)c1 (stereo not drawn) [Example 68, N′-((4-cyano-2,6-diisopropylphenyl)carbaoyl)-3-(hydroxymethyl)-4-(2-hydroxypropan-2-yl)benzenesulfonimidamide] | 1 to 5 µM |
| CC(C)(O)c1nc(CO)c(S(N)(=O)=NC(=O)Nc2c3c(c(C#N)c4c2CCC4)CCC3)s1 (stereo not drawn) [Example 69, N′-((8-cyano-1,2,3,5,6,7-hexahydro-s-indacen-4-yl)carbamoyl)-4-(hydroxymethyl)-2-(2-hydroxypropan-2-yl)thiazole-5-sulfonimidamide] | 1 to 5 µM |
| CC(C)c1cc(C#N)cc(C(C)C)c1NC(=O)NS(=N)(=O)c1sc(C(C)(C)O)nc1CO (stereo not drawn) [Example 70, N-((4-cyano-2,6-diisopropylphenyl)carbaoyl)-4-(hydroxymethyl)-2-(2-hydroxypropan-2-yl)thiazole-5-sulfonimidamide] | 1 to 5 µM |
| CC(C)c1cc(C#N)cc(C(C)C)c1NC(=O)N=S(N)(=O)c1ccc(S(C)(=O)=O)cc1 (stereo not drawn) [Example 73, N′-((4-cyano-2,6-diisopropylphenyl)carbaoyl)-4-(methylsulfonyl)benzenesulfonim idamide] | 1 to 5 µM |
| CC(C)c1cc(F)cc(C(C)C)c1NC(=O)N=S(N)(=O)c1cc(Cl)c(Cl)s1 (stereo not drawn) [Example 208, 4,5-Dichloro-N′-((4-fluoro-2,6-diisopropylphenyl)carbamoyl)thiophene-2-sulfonimidamide] | 5 to 30 µM |
| CC(C)c1cc(F)cc(C(C)C)c1NC(=O)N=S(N)(=O)c1ccc2c(c1)CCO2 (stereo not drawn) [Example 211, N′-((4-fluoro-2,6-diisopropylphenyl)carbamoyl)-2,3-dihydrobenzofuran-5-sulfonimidamide] | 5 to 30 µM |
| CC(C)c1cc(F)cc(C(C)C)c1NC(=O)N=S(N)(=O)c1cccnc1 (stereo not drawn) [Example 215, N′-((4-fluoro-2,6-diisopropylphenyl)carbamoyl)pyridine-3-sulfonimidamide] | 5 to 30 µM |
| Cc1cc(S(N)(=O)=NC(=O)Nc2c(C(C)C)cc(F)cc2C(C)C)c(C)o1 (stereo not drawn) [Example 217, N′-((4-fluoro-2,6-diisopropylphenyl)carbamoyl)-2,5-dimethylfuran-3-sulfonimidamide] | 5 to 30 µM |
| CC(C)c1cc(F)cc(C(C)C)c1NC(=O)N=S(N)(=O)c1cnc2ccccc2c1 (stereo not drawn) [Example 218, N′-((4-fluoro-2,6-diisopropyl-phenyl)carbamoyl)quinoline-3-sulfonimidamide] | 1 to 5 µM |

same assay, conditions: Homo sapiens, THP-1, hTHP-1 assay containing 2% fetal bovine serum; average; given as bound; read-out: hTHP-1 IC50 (Average IC50 of compounds in hTHP-1 assay)

| Structure (SMILES) | IC50 |
| --- | --- |
| Cc1nn(C)cc1S(N)(=O)=NC(=O)Nc1c(C(C)C)cc(F)cc1C(C)C (stereo not drawn) [Example 209, N′-((4-fluoro-2,6-diisopropylphenyl)carbamoyl)-1,3-dimethyl-1H-pyrazole-4-sulfonimidamide] | > 30 µM |
| CC(C)c1cc(F)cc(C(C)C)c1NC(=O)N=S(N)(=O)c1ccc2ccccc2c1 (stereo not drawn) [Example 210, N′-((4-fluoro-2,6-diisopropylphenyl)carbamoyl)naphthalene-2-sulfonimidamide] | > 30 µM |
| CC(C)c1cc(F)cc(C(C)C)c1NC(=O)N=S(N)(=O)c1ccccc1-c1ccccc1 (stereo not drawn) [Example 212, N′-((4-fluoro-2,6-diisopropylphenyl)carbamoyl)-[1,1′-biphenyl]-2-sulfonimidamide] | > 30 µM |
| COCc1ccccc1S(N)(=O)=NC(=O)Nc1c(C(C)C)cc(F)cc1C(C)C (stereo not drawn) [Example 213, N′-((4-fluoro-2,6-diisopropylphenyl)carbamoyl)-2-(methoxymethyl)benzene-sulfonimidamide] | > 30 µM |
| CC(C)c1cc(F)cc(C(C)C)c1NC(=O)N=S(N)(=O)c1cc(Cl)sc1Cl (stereo not drawn) [Example 214, 2,5-dichloro-N′-((4-fluoro-2,6-diisopropylphenyl)carbamoyl)thio-phene-3-sulfonimidamide] | > 30 µM |
| CC(C)c1cc(F)cc(C(C)C)c1NC(=O)N=S(N)(=O)c1ccc2c(c1)OCO2 (stereo not drawn) [Example 216, N′-((4-fluoro-2,6-diisopropyl-phenyl)carbamoyl)benzo[d][1,3]dioxole-5-sulfonimidamide] | > 30 µM |
| CC(C)c1cc(F)cc(C(C)C)c1NC(=O)N=S(N)(=O)c1cnc2n1CCC2 (stereo not drawn) [Example 219, N′-((4-fluoro-2,6-diisopropylphenyl)carbamoyl)-6,7-dihydro-5H-pyrrolo[1,2-a]imidazole-3-sulfonimidamide] | > 30 µM |
